Experimental data: PubChem BioAssay AID449744 (Sanford-Burnham Center for Chemical Genomics, 2010)
Activity calls are given as the source filed them.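 The calls were made as follows: active = less UV crosslinking of translation factor eIF4H to capped RNA at 100 µM than solvent-only control; inactive = the rest.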

Biological target: Eukaryotic translation initiation factor 4H (Homo sapiens) (UniProt Q15056)
Assay: blockers of eIF4H-RNA cap-proximal interaction – biochemical, UV crosslinking, autoradiography, orthogonal assay for translation initiation inhibitor project, SAR follow-up (AID 449744)
Details: UV crosslinking eIF4H:capped mRNA

SMILES	outcome
Cc1ccc(OC(C)C(=O)Nc2ccc3c(c2)n(C)c(=O)n3C)c(C)c1 (configuration not stated)	inactive
COc1cc(/C=N/NC(=O)c2ccccc2)ccc1OCC(=O)Nc1ccc([N+](=O)[O-])cc1	inactive
O=C(Nc1cccc2ncccc12)c1ccc(Cl)cc1	inactive
Cc1ccc(NC(=O)CN2C(=O)N/C(=C/c3ccccc3OCc3cccc(C(=O)O)c3)C2=O)cc1	inactive
COC(=O)c1c(Sc2ccccc2)c2ccccc2n1C	inactive
CCOC(=O)c1ccc2c(c1)N(CC)C(=O)c1ccccc1S2	inactive
COc1ccc(N2Cc3cccc(C(=O)NC(C)CCc4ccco4)c3C2=O)cc1 (configuration not stated)	inactive
CCn1c(=O)n(CC)c2cc(NC(=O)C(C)c3ccccc3)c(Br)cc21 (configuration not stated)	inactive
CCN1CCN(S(=O)(=O)c2ccc(Cl)c(C(=O)Nc3ccc(C(=O)N(CC)CC)cc3)c2)CC1	inactive
COc1cc([N+](=O)[O-])ccc1NC(=O)COC(=O)c1ccc(NC(N)=O)cc1	inactive
COc1cc(C=NNC(=O)c2ccccc2O)ccc1OCC(=O)Nc1ccccc1	inactive
Cc1ccc(NC(=O)C2CCN(C(=O)c3cccs3)CC2)c(C)c1	inactive
COc1ccc(N2Cc3cccc(C(=O)N4CCN(C(=O)c5ccco5)CC4)c3C2=O)cc1	inactive
CC(C)NC(=O)C(C)N1CCN(S(=O)(=O)c2ccc3ccccc3c2)CC1 (configuration not stated)	inactive
CC(C)c1ccc(OC(=O)c2cccc(S(=O)(=O)N3CCN(C)CC3)c2)cc1	inactive
O=C(COc1ccc(C=NNC(=O)c2ccc(O)cc2)cc1)Nc1ccc([N+](=O)[O-])cc1	inactive
CCOC(=O)c1ccc2c(c1)N(C)C(=O)c1ccccc1S2	inactive
CCOC(=O)N1CCC(NC(=O)c2cccc3c2C(=O)N(c2ccc(OC)cc2)C3)CC1	inactive
O=C(Nc1cccc2ncccc12)c1ccccc1Cl	inactive
O=C(Nc1ccccc1)C1CCN(C(=O)c2cccs2)CC1	inactive
COc1cc([N+](=O)[O-])ccc1NC(=O)COC(=O)c1ccc2c(c1)NC(=O)CS2	inactive
CCc1nnc(NC(=O)CSc2ccc(-c3ccco3)nn2)s1	inactive
